Reference: ChEMBL document CHEMBL3045122, “Synthesis, in vitro antimicrobial, antiproliferative, and QSAR studies of N-(substituted phenyl)-2/4-(1H-indol-3-ylazo)-benzamides” (Med Chem Res, 2013)

Assays:
[1] = system: Bacillus subtilis; assay: Ratio of MBC to MIC for Bacillus subtilis; assay type: functional
[2] = system: Aspergillus niger; assay: Antifungal activity against Aspergillus niger assessed as growth inhibition after 7 days by tube dilution method; assay type: functional
[3] = system: Aspergillus niger; assay: Ratio of MFC to MIC for Aspergillus niger; assay type: functional
[4] = system: Staphylococcus aureus; assay: Ratio of MBC to MIC for Staphylococcus aureus; assay type: functional
[5] = system: Candida albicans; assay: Ratio of MFC to MIC for Candida albicans; assay type: functional
[6] = system: HCT-116; assay: Cytotoxicity against Homo sapiens (human) HCT116 cells assessed as growth inhibition after 72 hr by MTT assay; assay type: functional, cell-based
[7] = system: Candida albicans; assay: Antifungal activity against Candida albicans assessed as growth inhibition after 48 hr by tube dilution method; assay type: functional
[8] = system: Escherichia coli; assay: Ratio of MBC to MIC for Escherichia coli; assay type: functional
[9] = system: Escherichia coli; assay: Antibacterial activity against Escherichia coli assessed as growth inhibition after 24 hr by tube dilution method; assay type: functional
[10] = system: Candida albicans; assay: Fungicidal activity against Candida albicans; assay type: functional
[11] = system: Aspergillus niger; assay: Fungicidal activity against Aspergillus niger; assay type: functional
[12] = system: Staphylococcus aureus; assay: Bactericidal activity against Staphylococcus aureus; assay type: functional
[13] = system: P388; assay: Ratio of 5-Fluorouracil IC50 to compound IC50 for Mus musculus (mouse) P388 cells; assay type: functional
[14] = system: Bacillus subtilis; assay: Antibacterial activity against Bacillus subtilis assessed as growth inhibition after 24 hr by tube dilution method; assay type: functional
[15] = system: Escherichia coli; assay: Bactericidal activity against Escherichia coli; assay type: functional
[16] = system: Staphylococcus aureus; assay: Antibacterial activity against Staphylococcus aureus assessed as growth inhibition after 24 hr by tube dilution method; assay type: functional
[17] = system: P388; assay: Cytotoxicity against Mus musculus (mouse) P388 cells assessed as growth inhibition after 72 hr by MTT assay; assay type: functional, cell-based
[18] = system: Bacillus subtilis; assay: Bactericidal activity against Bacillus subtilis; assay type: functional
[19] = system: MCF7; assay: Cytotoxicity against Homo sapiens (human) MCF7 cells assessed as growth inhibition after 72 hr by MTT assay; assay type: functional, cell-based
[20] = system: HCT-116; assay: Ratio of 5-Fluorouracil IC50 to compound IC50 for Homo sapiens (human) HCT116 cells; assay type: functional

Row | SMILES | Ratio [1] | -logMIC [2] | Ratio [3] | Ratio [4] | Ratio [5] | IC50 [6] [uM/ml] | -logMIC [7] | Ratio [8] | -logMIC [9] | MFC [10] [uM/ml] | MFC [11] [uM/ml] | MBC [12] [uM/ml] | Ratio IC50 [13] | -logMIC [14] | MBC [15] [uM/ml] | -logMIC [16] | IC50 [17] | MBC [18] [uM/ml] | IC50 [19] [uM/ml] | Ratio IC50 [20]
1 | Cc1cccc(NC(=O)c2ccc(/N=N\c3c[nH]c4ccccc34)cc2)c1 | 3 | 1.45 | 3 | 3 | 3 | 0.0989 | 1.45 | 3 | 1.75 | 0.04 | 0.04 | >0.14 | 73 | 1.75 | >0.14 | 1.45 | 0.0003 uM/ml | >0.14 | 0.0734 | –
2 | O=C(Nc1cccc([N+](=O)[O-])c1)c1ccc(/N=N\c2c[nH]c3ccccc23)cc1 | 3 | 1.49 | 3 | 3 | 3 | 0.0701 | 1.49 | 3 | 1.49 | 0.06 | 0.03 | >0.13 | – | 1.79 | >0.13 | 1.19 | 0.0519 uM/ml | >0.13 | 0.0519 | –
3 | Cc1ccc(C)c(NC(=O)c2ccc(/N=N\c3c[nH]c4ccccc34)cc2)c1 | 3 | 1.47 | 3 | 3 | 3 | 0.5435 | 1.47 | 3 | 1.77 | 0.07 | 0.03 | >0.14 | – | 1.47 | >0.14 | 1.47 | Not Active | >0.14 | 0.0299 | –
4 | Cc1ccc(NC(=O)c2ccc(/N=N\c3c[nH]c4ccccc34)cc2)c(C)c1 | 3 | 1.47 | 3 | 3 | 3 | 0.0761 | 1.47 | 3 | 1.47 | 0.14 | 0.03 | >0.14 | – | 1.47 | >0.14 | 1.47 | 0.1902 uM/ml | >0.14 | 0.087 | –
5 | O=C(Nc1cccc(Cl)c1)c1ccc(/N=N\c2c[nH]c3ccccc23)cc1 | 3 | 1.48 | 3 | 3 | 3 | 0.08 | 1.48 | 3 | 1.48 | >0.13 | 0.03 | >0.13 | – | 1.48 | >0.13 | 1.48 | 0.2667 uM/ml | >0.13 | 0.0827 | –
6 | COc1ccccc1NC(=O)c1ccc(/N=N\c2c[nH]c3ccccc23)cc1 | 3 | 1.47 | 3 | 3 | 3 | 0.1216 | 1.47 | 3 | 1.47 | 0.03 | 0.07 | >0.13 | – | 1.47 | >0.13 | 1.47 | Not Active | >0.13 | 0.0865 | –
7 | Cc1ccccc1NC(=O)c1ccc(/N=N\c2c[nH]c3ccccc23)cc1 | 3 | 1.45 | 3 | 3 | 3 | 0.5085 | 1.45 | 3 | 1.45 | >0.14 | 0.04 | >0.14 | – | 1.45 | >0.14 | 1.15 | Not Active | >0.14 | 0.0734 | –
8 | O=C(Nc1ccccc1F)c1ccc(/N=N\c2c[nH]c3ccccc23)cc1 | 3 | 1.46 | 3 | 3 | 3 | 0.5587 | 1.46 | 3 | 1.46 | 0.07 | 0.03 | >0.14 | – | 1.46 | >0.14 | 1.46 | 0.1061 uM/ml | >0.14 | 0.0838 | –
9 | O=C(Nc1ccc([N+](=O)[O-])cc1)c1ccc(/N=N\c2c[nH]c3ccccc23)cc1 | 3 | 1.49 | 3 | 3 | 3 | 0.1558 | 1.49 | 3 | 1.79 | 0.13 | 0.03 | >0.13 | – | 1.49 | >0.13 | 1.79 | 0.0112 uM/ml | >0.13 | 0.0545 | –
10 | O=C(Nc1ccc(Cl)cc1)c1ccc(/N=N\c2c[nH]c3ccccc23)cc1 | 3 | 1.48 | 3 | 3 | 3 | 0.1867 | 1.48 | 3 | 1.48 | >0.13 | 0.13 | >0.13 | – | 1.48 | >0.13 | 1.48 | 0.08 uM/ml | >0.13 | 0.1067 | –
11 | O=C(Nc1ccccc1)c1ccc(/N=N\c2c[nH]c3ccccc23)cc1 | 3 | 1.44 | 3 | 3 | 3 | 0.1029 | 1.44 | 3 | 1.44 | >0.15 | 0.07 | >0.15 | – | 1.44 | >0.15 | 1.44 | Not Active | >0.15 | 0.1471 | –
12 | Cc1ccc(NC(=O)c2ccc(/N=N\c3c[nH]c4ccccc34)cc2)cc1 | 3 | 1.45 | 3 | 3 | 3 | 0.0254 | 1.45 | 3 | 1.45 | >0.14 | 0.04 | >0.14 | 73 | 1.45 | >0.14 | 1.45 | 0.0003 uM/ml | >0.14 | 0.0424 | 1.8
13 | Cc1cccc(NC(=O)c2ccc(/N=N\c3c[nH]c4ccccc34)cc2)c1C | 3 | 1.47 | 3 | 3 | 3 | 0.2717 | 1.47 | 3 | 1.47 | >0.14 | 0.03 | >0.14 | – | 1.47 | >0.14 | 1.77 | 0.0516 uM/ml | >0.14 | 0.106 | –
14 | O=C(Nc1ccccc1[N+](=O)[O-])c1ccc(/N=N\c2c[nH]c3ccccc23)cc1 | 3 | 1.49 | 3 | 3 | 3 | 0.2078 | 1.49 | 3 | 1.49 | >0.13 | 0.03 | >0.13 | – | 1.79 | >0.13 | 1.49 | 0.0779 uM/ml | >0.13 | 0.1013 | –
15 | O=C(Nc1ccccc1Cl)c1ccc(/N=N\c2c[nH]c3ccccc23)cc1 | 3 | 1.48 | 3 | 3 | 3 | 0.12 | 1.48 | 3 | 1.78 | >0.13 | 0.03 | >0.13 | – | 1.48 | >0.13 | 1.18 | Not Active | >0.13 | 0.112 | –
